Ends that are not written are not given here.
Assays:
[1] = test system: Bacillus subtilis; format: cell-based
[2] = test system: sheep red blood cells

| Sequence | antibacterial effect in time kill assay (CFU) [1] | detergent-like (lytic) action [2] |
| --- | --- | --- |
| RFARKGALRQKNV [Protein kinase C] | no effect | – |
| TRKKLFHIFHATIRSR [PAD-1.17, TRKKLFHIFHATIRSR] | – | did not appear to act as a detergent |

From patent US8227423B2 (priority 2004, dated 2012)
